Among the data in patent publication US20070142384A1, “Compounds, pharmaceutical compositions and methods for use in treating metabolic disorders” (AMGEN INC., priority 2004, published 2007) are EC50 values, retold here.

The test addresses T1, human GPR40 (Homo sapiens, UniProt O14842).
T1 construct: expressed in transfected cells; host or cells: CHO cells, transient co-transfection with Aequorin expression vector (Euroscreen)
Kind of test: Cell-based aequorin assay using human GPR40. To be noted: activation of human GPR40; CHO cells transfected with GPR40 and Aequorin expression vectors; aequorin luminescence, area-under-curve 2-20 seconds; 0.01% BSA or 0.625% HSA; read-out: Relative EC50. How it is done:
A cell-based aequorin assay may be employed to characterize the modulatory activity of compounds on the GPR40 signaling pathway. In an exemplary assay, CHO cells are transfected in a 15 cm plated containing 14 million cells with 5 μg of GPR40 expression vector and 5 μg of Aequorin expression vector (Euroscreen) using Lipofectamine 2000 (Invitrogen). […] Trypsinization is halted with 28 mL of Hanks Buffered Salt Solution containing 20 mM Hepes (H/HBSS) and 0.01% fatty acid-free bovine serum albumin (BSA) or 0.625% fatty acid-free human serum albumin (HSA). […] Cells are gently mixed every 15 minutes. Compounds are dissolved in dimethyl sulfoxide for preparation of 10 mM stock solutions. Compounds are diluted in H/HBSS containing either 0.01% BSA or 0.625% HSA. Serial dilutions of the test compounds are prepared to determine dose response.
Aequorin luminescence measurements are made using an EG&G Berthold 96-well luminometer and the response is measured over a 20 second interval after cells and compounds were mixed. […] The EC50 (effective concentration to reach 50% maximal response) is determined from the dose response plot. […]

T1 sequence (O14842 whole entry): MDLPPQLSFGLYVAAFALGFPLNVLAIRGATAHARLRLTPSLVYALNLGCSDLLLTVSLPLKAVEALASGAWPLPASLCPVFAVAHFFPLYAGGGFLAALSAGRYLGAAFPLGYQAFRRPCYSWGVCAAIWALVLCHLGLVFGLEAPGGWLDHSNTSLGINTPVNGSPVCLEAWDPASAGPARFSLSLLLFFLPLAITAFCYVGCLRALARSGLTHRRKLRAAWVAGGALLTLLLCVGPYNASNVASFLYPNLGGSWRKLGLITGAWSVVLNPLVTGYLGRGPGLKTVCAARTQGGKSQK

In the case of `O=C(O)CC(c1ccc(OCc2cccc(-c3ccc(C(F)(F)F)cc3)c2)cc1)C1CC1` (stereo not shown) [Compound 91], the EC50 lay in the range of 1 to 10 µM.

The EC50 is the midpoint of the concentration-response curve.
